# Source: BindingDB's records for doi:10.1016/j.bmcl.2008.01.127 (Johnson & Johnson Pharmaceutical Research and Development, 2008)
# Test: Antagonist activity at rabbit CXCR2 by neutrophil chemotaxis assay
row,SMILES,IC50 [µM]
1,CS(=O)(=O)NC(=O)NCCc1c(-c2ccc(F)cc2)[nH]c2ccc(Br)cc12 [1-(2-(5-bromo-2-(4-fluorophenyl)-1H-indol-3-yl)ethyl)-3-(methylsulfonyl)urea],5.8
2,O=C(NCCc1c(-c2ccc(F)cc2)[nH]c2ccc(Br)cc12)NS(=O)(=O)c1ccccc1 [1-(2-(5-bromo-2-(4-fluorophenyl)-1H-indol-3-yl)ethyl)-3-(phenylsulfonyl)urea],1.7
3,CS(=O)(=O)NC(=O)CCCc1c(-c2ccc(F)cc2)[nH]c2ccc(C#N)cc12 [4-(5-cyano-2-(4-fluorophenyl)-1H-indol-3-yl)-N-(methylsulfonyl)butanamide],2.1

# The next lines start with the values.
row,IC50 [µM],SMILES
1,3,N#Cc1ccc2[nH]c(-c3ccc(F)cc3)c(CCCC(=O)NS(=O)(=O)C(F)(F)F)c2c1 [4-(5-cyano-2-(4-fluorophenyl)-1H-indol-3-yl)-N-(trifluoromethylsulfonyl)butanamide]
2,0.7,CN(C)S(=O)(=O)NC(=O)CCCc1c(-c2ccc(F)cc2)[nH]c2ccc(C#N)cc12 [4-[5-cyano-2-(4-fluorophenyl)-1H-indol-3-yl]-N-(dimethylsulfamoyl)butanamide]
3,1.3,CNS(=O)(=O)NC(=O)CCCc1c(-c2ccc(F)cc2)[nH]c2ccc(C#N)cc12 [4-[5-cyano-2-(4-fluorophenyl)-1H-indol-3-yl]-N-[(methylamino)sulfonyl]butanamide]
